25 molecules from ChEMBL document CHEMBL1150488 (1993) can be followed below.

≈ marks a conversion by molar mass, not a printed value.

The subject of experiment [1] is Staphylococcus aureus. Briefly: Tested for zone of inhibition against Staphylococcus aureus UC3665 (1 mg/mL, 80 microL/12.7 mm). The class given is functional.
For experiment [2], the system named is Staphylococcus aureus. Kind of experiment: Tested for zone of inhibition against Staphylococcus aureus UC6685 (1 mg/mL, 80 microL/6.5 mm). The class given is functional.
Experiment [3] concerns Bacteroides fragilis. Briefly: Tested for zone of inhibition against Bacteroides fragilis UC6513 (1 mg/mL, 80 microL/12.7 mm). It counts as functional.
In experiment [4] the test system is Staphylococcus epidermidis. Kind of experiment: Tested for zone of inhibition against Staphylococcus epidermidis UC719 (1 mg/mL, 80 microL/6.5 mm). The class given is functional.
In experiment [5] the test system is Clostridium perfringens. Briefly: Tested for zone of inhibition against Clostridium perfringens UC6509. It counts as functional.
The test system of another experiment is Mycobacterium avium. Kind of experiment: The compound (1 mg/mL, 80 microL/12.7 mm) was tested for zone of inhibition against Mycobacterium avium UC159; Tr = trace. The class given is functional, organism-based.
For experiment [6], the system named is Clostridium perfringens. Kind of experiment: The compound (1 mg/mL, 80 microL/12.7 mm) was tested for zone of inhibition against Clostridium perfringens UC6509; Tr = trace. The class given is functional, organism-based.
Experiment [7] concerns Prevotella melaninogenica. Briefly: Tested in vitro for its antibacterial activity against Bacteroides melaninogenicus UC 6523. It counts as functional.
The subject of experiment [8] is Bacteroides fragilis. Kind of experiment: Tested in vitro for its antibacterial activity against Bacteroides fragilis UC9370 [clindamycin 1 micro g/mL]. It counts as functional.
A further experiment relates to Cutibacterium acnes. Briefly: Tested in vitro for its antibacterial activity against Propionibacterium acnes UC6564. It counts as functional.
The test system of experiment [9] is Bacteroides thetaiotaomicron. Briefly: Tested in vitro for its antibacterial activity against Bacteroides thetaiotaomicron UC 9014[clindamycin 2 micro g/mL]. The class given is functional.
In experiment [10] the test system is Parabacteroides distasonis. Kind of experiment: Tested in vitro for its antibacterial activity against Bacteroides distasonis UC6518. It counts as functional.
Experiment [11] in a line: Tested in vitro for its antibacterial activity against Peptococcus variabilis UC6320. The class given is functional.
The next experiment concerns Fusobacterium nucleatum. Kind of experiment: Tested in vitro for its antibacterial activity against Fusobacterium nucleatum UC6324. The class given is functional.
For experiment [12], the system named is Clostridium perfringens. Briefly: Tested in vitro for its antibacterial activity against Clostridium perfringens UC6509. It counts as functional.
The subject of experiment [13] is Staphylococcus epidermidis. Briefly: The compound (1 mg/mL, 80 microL/6.5 mm) was tested for zone of inhibition against Staphylococcus epidermidis UC719; Tr = trace. The class given is functional, organism-based.
The subject of experiment [14] is Staphylococcus aureus. Kind of experiment: The compound (1 mg/mL, 80 microL/6.5 mm) was tested for zone of inhibition against Staphylococcus aureus UC6685; Tr = trace. The class given is functional, organism-based.
For a further experiment, the system named is Streptococcus pyogenes. Briefly: Tsted in vitro for its antibacterial activity against Streptococcus pyogenes UC152. It counts as functional.
The test system of a further experiment is Escherichia coli. Briefly: Tested in vitro for its antibacterial activity against Escherichia coli UC9379. It counts as functional.
The test system of experiment [15] is Staphylococcus epidermidis. Briefly: The compound (1 mg/mL, 80 microL/6.5 mm) was tested for zone of inhibition against Staphylococcus epidermidis UC719 (14H -, H: Hazy zone). The class given is functional.
Experiment [16] relates to Clostridium perfringens. Kind of experiment: The compound (1 mg/mL, 80 microL/12.7 mm) was tested for zone of inhibition against Clostridium perfringens UC6509 (33H -, H: Hazy zone). It counts as functional.

As to `CCCCOC(=O)N1C/C(=C(\C)CN=[N+]=[N-])C1=O`, the Diameter of inhibition zone amounted to 30 mm in the experiment on Staphylococcus aureus [1]; 39 mm in the experiment with Staphylococcus aureus [2]; 37 mm with Bacteroides fragilis [3]; 32 mm in [4]; 36 mm in the experiment on Clostridium perfringens [5].
Regarding `CCCC(=O)OC/C(C)=C1/CN(C(=O)c2ccccc2)C1=O`, the Diameter of inhibition zone with Staphylococcus aureus [1] is 16 mm; in the experiment with Staphylococcus aureus [2] it was 0 mm; in the experiment on Bacteroides fragilis [3] it was 0 mm; with Mycobacterium avium, “Trace”; in experiment [4], 0 mm; with Clostridium perfringens [6], “Trace”.
Regarding `CCCCCC(=O)N1C[C@H]([C@H](C)COC(C)=O)C1=O`, the Diameter of inhibition zone in the experiment on Staphylococcus aureus [1] stood at 36 mm; in the experiment on Staphylococcus aureus [2], 9 mm; in [4] it was 23 mm.
What is called MIC is the lowest concentration found to suppress growth. A higher MIC goes with a need for much substance. As to `CCC[C@@H]1C[C@@H](C(=O)N[C@@H]([C@H]2O[C@H](SC)[C@H](O)[C@@H](O)[C@H]2O)[C@H](C)Cl)N(C)C1` [CLINDAMYCIN], the MIC was less than 0.12 µg/mL in [7]; less than 0.12 µg/mL against Bacteroides fragilis [8]; less than 0.12 µg/mL in the experiment with Cutibacterium acnes; 4 µg/mL (≈ 9.41 µM) in experiment [9]; less than 0.12 µg/mL in [10]; 1 µg/mL (≈ 2.35 µM) in [11]. For the same molecule, the MIC with Fusobacterium nucleatum and against Clostridium perfringens [12] was less than 0.12 µg/mL each time. In addition, the Diameter of inhibition zone was 0 mm in the experiment on Staphylococcus aureus [1]; 0 mm in the experiment with Staphylococcus aureus [2]; 30 mm with Bacteroides fragilis [3]; “Trace” in the experiment with Mycobacterium avium; 22 mm in experiment [4]; 24 mm in the experiment on Clostridium perfringens [5].
For the molecule `CCCCCC(=O)N1C/C(=C(\C)COC(C)=O)C1=O`, the Diameter of inhibition zone with Staphylococcus aureus [1] was found to be 19 mm; with Staphylococcus aureus [2], 12 mm; in the experiment with Bacteroides fragilis [3], 30 mm; in experiment [4], 7 mm; with Clostridium perfringens [5], 0 mm.
Taken in the same sequence, the figures for `CCCC(=O)OC/C(C)=C1/CN(C(=O)CCC)C1=O` were 0 mm, 0 mm, 21 mm, 0 mm and 0 mm.
Take `C[C@H]1[C@H](NC(=O)/C(=N\OC(C)(C)C(=O)O)c2csc(N)n2)C(=O)N1S(=O)(=O)O` [AZTREONAM]: the MIC was 4 µg/mL (≈ 9.19 µM) in [7], 2 µg/mL (≈ 4.59 µM) against Cutibacterium acnes, 64 µg/mL (≈ 147 µM) in experiment [10] and 4 µg/mL (≈ 9.19 µM) against Fusobacterium nucleatum.
For `CCCCOC(=O)N1C[C@H]([C@H](C)CNC(C)=O)C1=O`, the Diameter of inhibition zone was 0 mm with Staphylococcus aureus [1]; 0 mm in the experiment with Staphylococcus aureus [2]; 36 mm with Bacteroides fragilis [3]; 0 mm in experiment [4]; 19 mm with Clostridium perfringens [5].
Turning to `CCCCCC(=O)N1C[C@H]([C@H](C)CNC(C)=O)C1=O`, the “Diameter of inhibition zone” value in [13] is “Trace”; in the experiment with Staphylococcus aureus [1], 19 mm; in the experiment with Staphylococcus aureus [14] it was “Trace”; with Bacteroides fragilis [3], 76 mm.
On to `CCCCCC(=O)N1C/C(=C(\C)Cn2nnc(C(=O)OC)c2C(=O)OC)C1=O`, for which the Diameter of inhibition zone with Staphylococcus aureus [1] was 0 mm; in the experiment with Staphylococcus aureus [14], “Trace”; in the experiment on Bacteroides fragilis [3], 17 mm; in experiment [4], 0 mm; with Clostridium perfringens [5] it was 0 mm.
On to `CCCCCC(=O)OC[C@@H](C)[C@H]1CN(C(=O)CCCCC)C1=O`, for which the MIC is 8 µg/mL (≈ 24.6 µM) in experiment [7]; 8 µg/mL (≈ 24.6 µM) with Bacteroides fragilis [8]; 4 µg/mL (≈ 12.3 µM) with Cutibacterium acnes; 8 µg/mL (≈ 24.6 µM) in experiment [9]; 256 µg/mL (≈ 787 µM) in experiment [10]; 256 µg/mL (≈ 787 µM) in [11]. The minimum inhibitory concentration (MIC) with Streptococcus pyogenes is more than 160 µg/mL; with Fusobacterium nucleatum, 16 µg/mL (≈ 49.2 µM); in the experiment on Clostridium perfringens [12], 128 µg/mL (≈ 393 µM); with Escherichia coli, more than 160 µg/mL. Moreover, the Diameter of inhibition zone with Staphylococcus aureus [1] was found to be 31 mm; in the experiment with Staphylococcus aureus [2], 24 mm; in [4] it was 8 mm.
Regarding `CCCCCC(=O)N1C/C(=C(\C)CN=[N+]=[N-])C1=O`, the Diameter of inhibition zone turned out to be 27 mm with Staphylococcus aureus [1], 27 mm in the experiment with Staphylococcus aureus [2], 52 mm with Bacteroides fragilis [3] and 19 mm in experiment [4].
Take `CCCCCC(=O)N1C[C@H]([C@H](C)Cn2nnc(C(=O)OC)c2C(=O)OC)C1=O`: the Diameter of inhibition zone in the experiment with Staphylococcus aureus [1] amounted to 0 mm; with Staphylococcus aureus [2] it was 0 mm; in the experiment on Bacteroides fragilis [3], 65 mm; in experiment [4] it was 0 mm.
On to `CC(=O)OC[C@H](C)[C@H]1CN(C(C)=O)C1=O`, for which the Diameter of inhibition zone was found to be 0 mm with Staphylococcus aureus [1]; 0 mm in the experiment on Staphylococcus aureus [2]; 20 mm in the experiment with Bacteroides fragilis [3]; 0 mm in experiment [4]; 0 mm with Clostridium perfringens [5].
As for `CCCCCC(=O)OC/C(C)=C1/CN(C(=O)CCCCC)C1=O`, the Diameter of inhibition zone (in the experiment on Staphylococcus aureus [1]; in the experiment on Staphylococcus aureus [2]; with Bacteroides fragilis [3]; in [4]; in the experiment with Clostridium perfringens [5]) was 0 mm throughout.
With `CCCC(=O)N1C/C(=C(\C)COC(C)=O)C1=O`, the “Diameter of inhibition zone” value is “Trace” in experiment [13]; 18 mm in the experiment on Staphylococcus aureus [1]; 8 mm in the experiment on Staphylococcus aureus [2]; 31 mm with Bacteroides fragilis [3]; 0 mm with Clostridium perfringens [5].
Take `CCCC(=O)OC[C@H](C)[C@H]1CN(C(=O)CCC)C1=O`: the MIC is 64 µg/mL (≈ 238 µM) in [7]; 256 µg/mL (≈ 950 µM) with Bacteroides fragilis [8]; 64 µg/mL (≈ 238 µM) against Cutibacterium acnes; 128 µg/mL (≈ 475 µM) in [9]; 256 µg/mL (≈ 950 µM) in experiment [10]; 256 µg/mL (≈ 950 µM) in experiment [11]. In addition, the MIC in the experiment with Fusobacterium nucleatum was 256 µg/mL (≈ 950 µM); against Clostridium perfringens [12], more than 256 µg/mL. The Diameter of inhibition zone in the experiment with Staphylococcus aureus [1] is 0 mm; in the experiment on Staphylococcus aureus [14] it was “Trace”; in the experiment on Bacteroides fragilis [3], 41 mm; in experiment [15], 14 mm; in the experiment on Clostridium perfringens [5], 33 mm.
In the case of `CCCC(=O)N1C/C(=C(/C)COC(C)=O)C1=O`, the Diameter of inhibition zone came out at 0 mm with Staphylococcus aureus [1], 0 mm with Staphylococcus aureus [2], 31 mm with Bacteroides fragilis [3] and 0 mm in [4].
Consider `CO[C@@]1(NC(=O)C(C(=O)O)c2ccc(O)cc2)C(=O)N2C(C(=O)O)=C(CSc3nnnn3C)CO[C@@H]21` (some centres undefined) [MOXALACTAM], for which the minimal inhibitory concentration (MIC) with Streptococcus pyogenes is 0.5 µg/mL (≈ 0.961 µM); against Escherichia coli it was 0.06 µg/mL (≈ 0.115 µM).
As for `CCCCCC(=O)N1C/C(=C(/C)CO)C1=O`, the Diameter of inhibition zone with Staphylococcus aureus [1] is 0 mm; with Staphylococcus aureus [2], 0 mm; in the experiment with Bacteroides fragilis [3], 27 mm; in the experiment on Mycobacterium avium, “Trace”; in [4], 0 mm; in the experiment with Clostridium perfringens [5], 28 mm.
Take `CCCC(=O)N1C[C@H]([C@@H](C)COC(C)=O)C1=O`: the Diameter of inhibition zone in the experiment with Staphylococcus aureus [1] came out at 0 mm; in the experiment with Staphylococcus aureus [2], 0 mm; in the experiment with Bacteroides fragilis [3], 36 mm; in experiment [4] it was 0 mm; in the experiment with Clostridium perfringens [5] it was 0 mm.
With `CCCC(=O)N1C[C@H]([C@H](C)COC(C)=O)C1=O`, the MIC in [7] was 64 µg/mL (≈ 265 µM); against Bacteroides fragilis [8], more than 128 µg/mL; in the experiment with Cutibacterium acnes it was 32 µg/mL (≈ 133 µM); in [9], 64 µg/mL (≈ 265 µM); in [10], more than 128 µg/mL; in experiment [11] it was 64 µg/mL (≈ 265 µM). Moreover, the minimal inhibitory concentration (MIC) in the experiment on Fusobacterium nucleatum was 64 µg/mL (≈ 265 µM); in the experiment with Clostridium perfringens [12], more than 128 µg/mL. Also, the Diameter of inhibition zone with Staphylococcus aureus [1] came to 0 mm; with Staphylococcus aureus [2], 0 mm; in the experiment on Bacteroides fragilis [3], 78 mm; in experiment [4] it was 0 mm; in the experiment with Clostridium perfringens [16], 33 mm.
On to `CCCCCC(=O)N1C/C(=C(\C)CF)C1=O`, for which the Diameter of inhibition zone stood at 36 mm in the experiment with Staphylococcus aureus [1]; 39 mm in the experiment on Staphylococcus aureus [2]; 88 mm in the experiment with Bacteroides fragilis [3]; 31 mm in [4]; 78 mm in the experiment on Clostridium perfringens [5].
Taken in the same sequence, the figures for `CC(=O)OC/C(C)=C1/CN(C(C)=O)C1=O` were 0 mm, 0 mm, 29 mm, 0 mm and 0 mm.
`CCCCCC(=O)N1C/C(=C(/C)COC2CCCCO2)C1=O` (centres undefined): the Diameter of inhibition zone was found to be 0 mm in the experiment with Staphylococcus aureus [1], 0 mm in the experiment with Staphylococcus aureus [2], 0 mm with Bacteroides fragilis [3] and 0 diameter mm in experiment [4].
